Assay results published in patent US20240277658A1, “NLRP3 ACTIVATORS FOR USE IN THE TREATMENT OF INFECTIOUS DISEASES OR CANCER BY ACTIVATING NLRP3 INFLAMMASOME” (ALBERT-LUDWIGS-UNIVERSITÄT FREIBURG, priority 2020, published 2024).
Several values for one entry are separate records, joined by “and”; a condition that tells them apart may be missing. Equal entries are not always repeated. Structures can show the parent of a compound that is named as a salt. Where two headings read alike, the source gives them in different places.

Key:
BMDCs = assay: LDH release (lytic cell death, pyroptosis) from LPS-primed BMDCs; format: cell-based, mouse; settings: for Average (% positive control): LDH release; for cytotoxicity at 50 µM / cytotoxicity at 5 µM / cytotoxicity at 18.75 µM / cytotoxicity at 37.5 µM / cytotoxicity at 75 µM: Mus musculus, BMDC
Protocol: (§1) This was tested in cell culture in several different in vitro assays classically used to investigate inflammasome activation. These include measuring inflammasome-dependent lytic cell death (pyroptosis) by detecting release of the cytosolic enzyme lactate dehydrogenase (LDH) using a commercial colorimetric assay and release of proinflammatory cytokines like IL-1β by enzyme-linked immunosorbent assay (ELISA), analyzing cleavage and activation of caspase-1 and IL-1β by immunoblotting and immunofluorescence imaging of ASC speck formation. Lytic cell death was determined via LDH release. Assay results for compounds are illustrated in the Tables below, wherein the concentration of the compounds tested had been 50 μM or as indicated in the table, and the concentration of the known activators has been tested with 5 μM of nigericin, 100 μM of each R837 and CL097. For classification of the activity of a given molecule, release of IL-1β was quantified as % of IL-1% of a respective control activator used for the experiment (highlighted in tables with bold letters). The compounds listes in Table 1 were classified into 4 groups depending on their ability to induce the NLRP3 inflammasome activation, assessed by % IL-1β release as compared to the positive control.
(§2) Mouse bone marrow-derived dendritic cells (BMDCs) were isolated from femurs and tibias previously described (Gross, Olaf, 2012, “Measuring the inflammasome”, Methods in molecular biology, Clifton, N.J., 844, pp. 199-222.). In brief, tibias and femurs were carefully removed and put to sterile 70% ethanol for 1 minute. Using a 22-G needle attached to a 20 ml-syringe filled with sterile flushing medium, the bone marrow was pressed through the mesh of a […] cell strainer. The cells were spun down by centrifugation at 400×g, 4° C. for 5 minutes and red blood cells lysed by resuspension and incubation for 5 minutes at room temperature in RBC lysis buffer. 9 ml of flushing medium were added and cells were again spun down by centrifugation at 400×g, 4° C. for 5 minutes. Cells were then resuspended in BMDC medium (RPMI, 10% fetal bovine serum, 1% penicillin-streptomycin100 U/ml, 20 ng/ml recombinant murine GM-CSF), counted and plated at a density of 0.5×10^6 cells ml^−1 in 10 ml medium and incubated at 37° C., 5% CO2 in a humidified incubator. After 2 days, 10 ml of fresh medium were added to the cells and after 4 days, the medium was fully exchanged to 20 ml of fresh medium. The cells were allowed to differentiate for 6 to 8 days before usage.
(§3) For canonical inflammasome activation BMDCs after 7-9 days of differentiation were harvested and counted with a Neubauer Chamber (Hecht Assistant) and the concentration was set to 1 Mio cells ml^−1. 100 μl cell suspension per well were seeded in 96-well plates. The cells were primed with 50 ng ml^−1 E. coli K12 ultra-pure LPS for 3 hours and subsequently treated with canonical inflammasome activators or experimental compounds for 3 hours if not indicated differently (incubation time FIG. 4D, 5, 7, 8, 11, 13-18: 3 h, FIG. 12: 4 h). Concentrations of the stimuli were as follows if not indicated differently: 5 μM nigericin, 100 μM imiquimod (also known as R837), 100 μM CL097, 100 μM R848, […] poly(dA:dT), 300 μg ml^−1 MSU. If an inhibitor was used before stimuli treatment, the inhibitor was added after 2.5 hours of priming and it was incubated for 30 minutes before inflammasome activation. Inhibitors were used as follows: 3 μM MCC950, 45 mM KCl, 30 μM ebselen (2-Phenyl-1,2-benzoselenazol-3-one), 5 μM cytochalasin D (see FIGS. 8, 11, 12 and 17).
(§4) All inflammasome stimulations were performed in three technical replicates for each condition. […]

NLRP3 inflammasome = biological target: T1, NLRP3 inflammasome (Mus musculus, UniProt Q8R4B8); assay: IL-1β release from LPS-primed BMDCs (ELISA) as readout of NLRP3 inflammasome activation; format: cell-based
T1 construct: endogenous in cells; host or cells: primary mouse bone marrow-derived dendritic cells (BMDCs), LPS-primed
T1 sequence (Q8R4B8 whole entry): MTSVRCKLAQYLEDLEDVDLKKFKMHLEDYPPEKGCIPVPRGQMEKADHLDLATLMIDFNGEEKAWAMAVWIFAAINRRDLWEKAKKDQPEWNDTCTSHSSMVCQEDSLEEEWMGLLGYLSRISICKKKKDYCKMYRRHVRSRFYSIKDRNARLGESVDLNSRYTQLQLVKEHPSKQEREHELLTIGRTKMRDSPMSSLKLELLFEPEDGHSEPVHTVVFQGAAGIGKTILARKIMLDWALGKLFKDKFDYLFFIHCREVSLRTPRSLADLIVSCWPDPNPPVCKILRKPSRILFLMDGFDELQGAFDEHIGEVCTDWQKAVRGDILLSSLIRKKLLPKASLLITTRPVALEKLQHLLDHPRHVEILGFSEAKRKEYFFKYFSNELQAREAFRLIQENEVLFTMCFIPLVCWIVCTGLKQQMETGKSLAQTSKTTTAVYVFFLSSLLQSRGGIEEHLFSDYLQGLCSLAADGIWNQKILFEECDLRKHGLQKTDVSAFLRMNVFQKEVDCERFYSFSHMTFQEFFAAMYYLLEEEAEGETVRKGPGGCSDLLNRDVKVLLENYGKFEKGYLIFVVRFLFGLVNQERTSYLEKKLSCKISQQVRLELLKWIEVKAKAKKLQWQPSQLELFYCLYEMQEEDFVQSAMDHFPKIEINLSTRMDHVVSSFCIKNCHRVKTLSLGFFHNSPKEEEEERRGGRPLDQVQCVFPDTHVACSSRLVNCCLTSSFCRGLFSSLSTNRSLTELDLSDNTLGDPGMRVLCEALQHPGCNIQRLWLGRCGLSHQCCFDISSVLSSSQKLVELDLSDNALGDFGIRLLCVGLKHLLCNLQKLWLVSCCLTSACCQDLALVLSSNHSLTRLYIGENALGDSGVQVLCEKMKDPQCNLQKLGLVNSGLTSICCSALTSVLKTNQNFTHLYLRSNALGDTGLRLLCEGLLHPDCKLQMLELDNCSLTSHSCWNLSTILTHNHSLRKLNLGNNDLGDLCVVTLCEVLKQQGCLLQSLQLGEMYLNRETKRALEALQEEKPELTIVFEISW
Protocol: as §1, §2, §3, §4

[1] = compound 50 μM, positive control nigericin 5 μM
[2] = compound 50 μM, LPS-primed BMDCs, read-out: Average LDH release (% of max.)
[3] = single replicates, compound 50 μM, LPS-primed BMDCs, read-out: LDH release (% of max.)
[4] = IL-1β release, compound 50 μM, positive control nigericin 5 μM
[5] = compound 50 μM, LPS-primed BMDCs
[6] = single replicates, compound 50 μM, LPS-primed BMDCs

Row | Structure (SMILES) | Average (% positive control) (NLRP3 inflammasome; [4]) | Average IL-1β (NLRP3 inflammasome; [5]) [ng/mL] | Average (% positive control) (BMDCs; [1]) | cytotoxicity at 50 µM (BMDCs; [2]) [%] | cytotoxicity at 50 µM (BMDCs; [3]) [%] | IL-1β (NLRP3 inflammasome; [6]) | further results
1 | O=C(Nc1ccccc1)Nc1ccc(NC(=O)C(F)F)cc1 [L01.016, 2,2-difluoro-N-{4-[(phenylcarbamoyl)-amino]phenyl}acet-amide] | 10.857 | 0.778 | 17.216 | 12.6 | 11.6 | 0.755 ng/mL and 0.723 ng/mL and 0.857 ng/mL | –
2 | CO[C@@H]1C[C@@H](C[C@H]2CC[C@H](C)[C@H]([C@@H](C)C(=O)O)O2)O[C@]2(O[C@](C)([C@H]3CC[C@@](C)([C@@H]4O[C@@H]([C@H]5O[C@@](O)(CO)[C@H](C)C[C@@H]5C)C[C@@H]4C)O3)C[C@H]2C)[C@@H]1C [Nigericin, Nigericin sodium salt, reference compound] | – | – | – | – | – | – | Average (% positive control) (BMDCs; 5 μM, positive control nigericin 5 μM): 100.000 % positive control; cytotoxicity at 5 µM (BMDCs; 5 μM, LPS-primed BMDCs, read-out: Average LDH release (% of max.)): 73.2%; cytotoxicity at 5 µM (BMDCs; section 1.3, 5 μM, read-out: Average LDH release (% of max.)): 53.7%; cytotoxicity at 5 µM (BMDCs; single replicates, 5 μM, LPS-primed BMDCs, read-out: LDH release (% of max.)): 61.9%; Average (% positive control) (BMDCs; section 1.3, 5 μM, positive control nigericin 5 μM): 100.000 % positive control; Average IL-1β (NLRP3 inflammasome; 5 μM, LPS-primed BMDCs): 7.168 ng/mL; Average (% positive control) (NLRP3 inflammasome; IL-1β release, 5 μM, positive control nigericin 5 μM): 100.000 % positive control; Average IL-1β (NLRP3 inflammasome; section 1.3, 5 μM): 3.151 ng/mL; Average (% positive control) (NLRP3 inflammasome; section 1.3, IL-1β release, 5 μM, positive control nigericin 5 μM): 100.000 % positive control; IL-1β (NLRP3 inflammasome; section 1.3, single replicates, 5 μM, sodium salt): 3.007 ng/mL and 3.127 ng/mL and 3.318 ng/mL; IL-1β (NLRP3 inflammasome; single replicates, 5 μM, LPS-primed BMDCs, sodium salt): 6.834 ng/mL and 6.400 ng/mL and 7.872 ng/mL and 6.518 ng/mL and 7.890 ng/mL and 7.496 ng/mL
3 | O=C(Nc1ccccc1)Nc1cccc(N2CCOC2=O)c1 [L01.045, 1-[3-(2-oxo-1,3-oxazol-idin-3-yl)phenyl]-3-phenylurea] | 1.568 | 0.112 | 7.094 | 5.19 | 5.98 | 0.103 ng/mL and 0.116 ng/mL and 0.118 ng/mL | –
4 | Cc1ccc(NC(=O)Nc2ccccc2)cc1NC(=O)C(F)F [L01.116, 2,2-difluoro-N-{2-meth-yl-5-[(phenylcarbamo-yl)amino]phenyl}acet-amide] | 16.099 | 1.154 | 24.685 | 18.1 | 18 | 1.107 ng/mL and 1.192 ng/mL and 1.163 ng/mL | –
5 | O=C(Nc1ccccc1)Nc1cccc(NC(=O)NC2CC2)c1 [L01.122, 3-cyclopropyl-1-{3-[(phenylcarbamoyl)-amino]phenyl}urea] | 1.214 | 0.087 | 11.054 | 8.09 | 9.16 | 0.072 ng/mL and 0.093 ng/mL and 0.095 ng/mL | –
6 | COc1ccc(NC(=O)Nc2ccc(-c3noc(CC4CCCN(Cc5cccc(F)c5C)C4)n3)cc2)cc1 (centres unmarked) [PM07, 1-[4-(5-((1-(3-fluoro-2-methylbenzyl)piperidin-3-yl)methyl)-1,2,4-oxadiazol-3-yl)phenyl]-3-[(4-methoxy)phenyl] urea] | – | – | – | – | – | – | cytotoxicity at 18.75 µM (BMDCs; section 1.4, 18.75 μM, read-out: Average LDH release (% of max.)): 51%; cytotoxicity at 37.5 µM (BMDCs; section 1.4, 37.5 μM, read-out: Average LDH release (% of max.)): 69.3%; cytotoxicity at 75 µM (BMDCs; section 1.4, 75 μM, read-out: Average LDH release (% of max.)): 85.6%; cytotoxicity at 18.75 µM (BMDCs; section 1.4, single replicates, 18.75 μM, read-out: LDH release (% of max.)): 50.4%; cytotoxicity at 37.5 µM (BMDCs; section 1.4, single replicates, 37.5 μM, read-out: LDH release (% of max.)): 67.7%; cytotoxicity at 75 µM (BMDCs; section 1.4, single replicates, 75 μM, read-out: LDH release (% of max.)): 85.1%; Average (% positive control) (BMDCs; section 1.4, 18.75 μM, positive control EN22 18.75 μM): 71.489 % positive control; Average (% positive control) (BMDCs; section 1.4, 37.5 μM, positive control EN22 18.75 μM): 97.102 % positive control; Average (% positive control) (BMDCs; section 1.4, 75 μM, positive control EN22 18.75 μM): 120.051 % positive control; Average IL-1β (NLRP3 inflammasome; 18.75 μM): 1.335 ng/mL; IL-1β (NLRP3 inflammasome; 18.75 μM, individual replicate values): 1.117 ng/mL and 1.248 ng/mL and 1.641 ng/mL; Average IL-1β (NLRP3 inflammasome; 37.5 μM): 1.594 ng/mL; IL-1β (NLRP3 inflammasome; 37.5 μM, individual replicate values): 1.916 ng/mL and 1.571 ng/mL and 1.295 ng/mL; Average IL-1β (NLRP3 inflammasome; 75 μM): 1.217 ng/mL; IL-1β (NLRP3 inflammasome; 75 μM, individual replicate values): 1.202 ng/mL and 1.130 ng/mL and 1.320 ng/mL; Average (% positive control) (NLRP3 inflammasome; IL-1β, 18.75 μM, positive control EN22 18.75 μM): 21.124 % positive control; Average (% positive control) (NLRP3 inflammasome; IL-1β, 37.5 μM, positive control EN22 18.75 μM): 25.211 % positive control; Average (% positive control) (NLRP3 inflammasome; IL-1β, 75 μM, positive control EN22 18.75 μM): 19.256 % positive control

More lines, main results first:

Row | Average (% positive control) (NLRP3 inflammasome; [4]) | Average IL-1β (NLRP3 inflammasome; [5]) [ng/mL] | Structure (SMILES) | Average (% positive control) (BMDCs; [1]) | cytotoxicity at 50 µM (BMDCs; [2]) [%] | cytotoxicity at 50 µM (BMDCs; [3]) [%] | IL-1β (NLRP3 inflammasome; [6]) | further results
7 | 4.350 | 0.312 | Cc1ccc(N2C(=O)N(Cc3nc(-c4ccc(F)cc4)no3)C(=O)C2C)cc1 (centres unmarked) [L01.130, 3-{[3-(4-fluorophenyl)-1,2,4-oxadiazol-5-yl]-methyl}-5-methyl-1-(4-methylphenyl)imidazol-idine-2,4-dione] | 11.646 | 8.52 | 9.39 | 0.404 ng/mL and 0.317 ng/mL and 0.215 ng/mL | –
8 | 0.988 | 0.071 | COc1ccc(NC(=O)NCc2nc(Cc3ccccc3)no2)cc1 [L01.125, 3-[(3-benzyl-1,2,4-oxadiazol-5-yl)methyl]-1-(4-methoxyphenyl)-urea] | 9.397 | 6.87 | 7.72 | 0.080 ng/mL and 0.071 ng/mL and 0.061 ng/mL | –
9 | 1.941 | 0.139 | Cc1cccc(-c2noc(CN3C(=O)CN(c4ccccc4)C3=O)n2)c1 [L01.069, 3-{[3-(3-methylphenyl)-1,2,4-oxadiazol-5-yl]-methyl}-1-phenylimid-azolidine-2,4-dione] | 12.713 | 9.3 | 9.2 | 0.131 ng/mL and 0.138 ng/mL and 0.149 ng/mL | –
10 | 0.942 | 0.068 | COc1cccc(NC(=O)NCc2nc(Cc3ccccc3)no2)c1 [L01.067, 3-[(3-benzyl-1,2,4-oxadiazol-5-yl)methyl]-1-(3-methoxyphenyl)-urea] | 9.336 | 6.83 | 6.48 | 0.064 ng/mL and 0.069 ng/mL and 0.070 ng/mL | –
